From patent US11207301B2, “Sphingosine 1 phosphate receptor agonists for neuroprotection” (RECEPTOS LLC, priority 2017, dated 2021)

Key:
Assay type in all cases: cell-based
[1] = test system: ERK phosphorylation in primary rat astrocytes; test: ERK phosphorylation in primary rat astrocytes (MSD pERK assay); conditions: Astrocyte, 10 min, 10-minute exposure, mean of n=3
Experimental: (§1) For the experiments using rat primary astrocytes, eight-point concentration-response curves were generated for AKT and ERK phosphorylation in primary rat astrocytes cultures in response to a 10-minute treatment with ozanimod (100 nM-46 pM), Compound 3 (10 nM-5 pM), Compound 1 (10 nM-5 pM), or FTY720-P (10 nM-5 pM). Phosphorylation of AKT and ERK was quantified using Meso Scale Discovery assay kits (MSD Mutli-Spot Phopho-AKT (Ser473) Assay Kit and MSD Multi-Spot MAP Kinase Phosphoprotein Assay Whole Cell Lysate Kit) and imaging platform. AKT and ERK phosphorylation within treated astrocytes were assessed as the mean change in signal intensity compared to DMSO vehicle and the half maximal effective concentration (EC50) was determined using non-linear regression.
(§2) Embryonic day18 (E18) rat cortices were purchased from BrainBits LLC. (Springfield, Ill.) and were cultured according to the supplier's protocol. Briefly, cortices were incubated at 37° C. for 10 minutes in activated papain solution before trituration in hibernation medium containing B27 supplement using a modified siliconized glass Pasteur pipette. The cell suspension was centrifuged at 1100×g for 1 minute at room temperature (RT). The cell pellet was then resuspended in NbAstro medium (BrainBits LLC.) and the live cell density was assessed using a cell counter. Primary cells were plated at a density of 7500 cells/cm2 in T75 tissue culture flasks coated with poly-D-lysine (PDL) in a total volume of 12 mL of NbAstro media, and incubated for 10-14 days at 37° C. 5% CO2. After 10-14 days, primary astrocytes in passage 0 (P0) that had reached confluency in the T75 flasks were detached using TrypLE detachment reagent, pelleted at 300×g, and plated into poly-d-lysine coated T225 flasks in 20 mL of NbAstro media, and incubated for another 7 days at 37° C. 5% CO2. After 7 days, primary P1 astrocytes in confluent T225 flasks were detached using TrypLE detachment reagent, pelleted at 300×g, and plated intopoly-d-lysine coated 96-well plates at 10,000 cells per well in 200 μL of NbAstro media, and incubated for 7 days at 37° C. 5% CO2. After 7 days, P2 primary astrocytes were utilized for pAKT and pERK assays.
(§3) The pERK (phosphorylated ERK)/pMAPkinase assay was performed according to the manufacturer's protocol. Briefly, MSD pERK/pMAPkinase plates were blocked for 1-2 hours by adding 150 μL of blocker A prepared in 1× Tris wash buffer. […] Following antibody incubation, plates were washed three times with 150 μL of 1× Tris wash buffer and 1× read buffer (150 μL/well) was added. Finally, the plates were read in the MSD imager platform to assess the pERK levels.
(§4) AKT and ERK phosphorylation data were analyzed by non-linear regression (GraphPad Prism, version 6) to determine the EC50 values.

[2] = test system: AKT phosphorylation in primary rat astrocytes; test: AKT phosphorylation in primary rat astrocytes (MSD pAKT assay); conditions: Astrocyte, 10 min, 10-minute exposure, mean of n=4
Experimental: as §1, §2
as §3, with “pAKT” for “pERK”, “AKT)” for “ERK)/pMAPkinase”, “pAKT” for “pERK/pMAPkinase”, “Finally,” for “Finally, the”, “pAKT” for “the pERK”
as §4

[3] = test system: AKT phosphorylation in primary mouse astrocytes; test: AKT phosphorylation in primary mouse cortical astrocytes (AlphaLISA SureFire Ultra); conditions: Astrocyte, 10 min, 10-minute exposure, mean of n=3
Experimental: For the experiments using mouse and human primary astrocytes, ten-point concentration-response curves (90 nM-4.57 pM or 30 nM-1.52 pM) were generated for AKT and/or ERK phosphorylation in primary human and mouse cortical astrocytic cultures in response to a 10-minute treatment with ozanimod, Compound 3, Compound 1, or FTY720-P. AKT and ERK phosphorylation were quantified using AlphaLISA SureFire Ultra Assay kits and the EnVision Plate Reader. AKT and ERK phosphorylation within treated astrocytes were expressed as the mean change in signal intensity compared to the dimethyl sulfoxide (DMSO) vehicle and the half maximal effective concentration (EC50) was determined using non-linear regression.
Timed pregnant (E16) C57BL/6J female mice arrive to the test facility on a weekly basis and were housed and cared for according to appropriate protocols for this model. Primary mouse cortical astrocytes are harvested from P0-P2 pups. The newly born animals were deeply anesthetized on ice, decapitated, and the brains were rapidly removed and stored in ice-cold NbAstro media (BrainBits, LLC). Cells were dissociated from freshly dissected cortices by mechanical disruption in the presence of trypsin and DNase. Cells were put into a PDL coated T75 tissue culture flask containing 16 mL NbAstro Media and incubated at 37° C. 5% CO2. Once the mouse astrocytes had reached confluency in the T75 flask, they were detached using TripLE detachment reagent, pelleted at 300×g, expanded into two T225 PDL coated tissue culture flasks containing 40 mL of NbAstro and incubated at 37° C. 5% CO2. Once the astrocytes reached confluency in the T225 flasks they were detached using TrypLE detachment reagent, pelleted at 300×g, plated into PDL coated 96-well plates at a density of 10,000 cells per well in 200 μL NbAstro and incubated at 37° C. 5% CO2. Half of the media was replenished every 3-4 days. After 5-7 days of incubation, the P2 mouse astrocyte plates were utilized for the pERK and pAKT assays.
Cell lysis and detection of pAKT were performed according to the PerkinElmer AlphaLISA SureFire Ultra pAKT1/2/3 ([…]) assay protocol. Astrocytes were lysed in the 96-well plate following a 10 minute incubation with compounds with shaking at room temperature (RT). The astrocytic lysates (10 μL/well) were transferred into a 384-well OptiPlate. As specified by the assay protocol, an acceptor bead mix and a donor bead mix (5 μL/well for each) were added to the plate under subdued light. […] The plates were read on the EnVision Plate Reader to assess the pAKT levels.
The AKT and ERK phosphorylation data, collected by a Perkin Elmer EnVision Microplate Reader, was analyzed by non-linear regression (GraphPad Prism, version 7.03) to determine the EC50 values.

Row | EC50 [1] [pM] | EC50 [2] [pM] | EC50 [3] [pM] | SMILES
1 | 290 | 660 | 490 | CC(C)Oc1ccc(-c2nc(-c3cccc4c3CCC4=O)no2)cc1C#N [Compound 1, 2-isopropoxy-5-(3-(1-oxo-2,3-dihydro-1H-inden-4-yl)-1,2,4-oxadiazol-5-yl)benzonitrile]
2 | 800 | 2030 | 900 | CC(C)Oc1ccc(-c2nc(-c3cccc4c3CC[C@@H]4NCCO)no2)cc1C#N [Ozanimod]
